Here are results for twelve molecules from patent US11919900B1 (priority 2023, dated 2024).

Converted amounts (≈) assume the structure as drawn.

The first test has as its system Mycobacterium tuberculosis H37Rv (ATCC: 25177). The test is described as follows: Resazurin Microplate Assay (REMA), antitubercular activity, H37Rv. As to conditions: Middlebrook 7H9 broth, 8 days at 37° C. then resazurin overnight. In kind it is cell-based. (In general: Alamar Blue is a resazurin reagent that responds to reducing activity.)
Consider “Ethyl 4-bromo-1-(2-nitrobenzoyl)pyrrolo[1,2-a]quinoline-3-carboxylate [QUIN-KNV12]”, for which the “Antitubercular activity against Mycobacterium tuberculosis H37Rv (MIC)” value amounted to 1 µg/mL.

Staying with this test, now noted: Mycobacterium tuberculosis, 192 h, Middlebrook 7H9 broth, 8 days at 37° C. then resazurin overnight, read-out: Antitubercular activity against Mycobacterium tuberculosis H37Rv (MIC).
For orientation: MIC means the lowest concentration that inhibits growth of the organism. With `COC(=O)c1c(C(=O)OC)c2c(Br)cc3ccccc3n2c1C(=O)c1ccc(OC)cc1` [QUIN-KNV1, Dimethyl 4-bromo-1-(4-methoxybenzoyl)pyrrolo[1,2-a]quinoline-2,3-dicarboxylate], the minimal inhibitory concentration (MIC) is 0.5 µg/mL (≈ 1.01 µM). Take `CCOC(=O)c1cc(C(=O)c2ccc(OC)cc2)n2c1c(Br)cc1ccccc12` [QUIN-KNV2, Ethyl 4-bromo-1-(4-methoxybenzoyl)pyrrolo[1,2-a]quinoline-3-carboxylate]: the minimum inhibitory concentration (MIC) was determined as 1 µg/mL (≈ 2.21 µM). For the molecule `COC(=O)c1c(C(=O)OC)c2c(Br)cc3ccccc3n2c1C(=O)c1ccc(Cl)cc1` [QUIN-KNV3, Dimethyl 4-bromo-1-(4-chlorobenzoyl)pyrrolo[1,2-a]quinoline-2,3-dicarboxylate], the minimum inhibitory concentration (MIC) was determined as 1 µg/mL (≈ 2 µM). Still for that read-out and setting: the result for `CCOC(=O)c1cc(C(=O)c2ccc(Cl)cc2)n2c1c(Br)cc1ccccc12` [QUIN-KNV4, Ethyl 4-bromo-1-(4-chlorobenzoyl)pyrrolo[1,2-a]quinoline-3-carboxylate] reads 8 µg/mL (≈ 17.5 µM). On the same count and under the same terms, the result for `COC(=O)c1c(C(=O)OC)c2c(Br)cc3ccccc3n2c1C(=O)c1ccc(Br)cc1` [QUIN-KNV5, Dimethyl 4-bromo-1-(4-bromobenzoyl)pyrrolo[1,2-a]quinoline-2,3-dicarboxylate] reads 0.5 µg/mL (≈ 0.917 µM). Same read-out and setting: the result for `CCOC(=O)c1cc(C(=O)c2ccc(Br)cc2)n2c1c(Br)cc1ccccc12` [QUIN-KNV6, Ethyl 4-bromo-1-(4-bromobenzoyl)pyrrolo[1,2-a]quinoline-3-carboxylate] reads 2 µg/mL (≈ 3.99 µM). On to `COC(=O)c1c(C(=O)OC)c2c(Br)cc3ccccc3n2c1C(=O)c1ccc(F)cc1` [QUIN-KNV7, Dimethyl 4-bromo-1-(4-fluorobenzoyl)pyrrolo[1,2-a]quinoline-2,3-dicarboxylate], for which the MIC turned out to be 16 µg/mL (≈ 33 µM).

With `CCOC(=O)c1cc(C(=O)c2ccc(F)cc2)n2c1c(Br)cc1ccccc12` [QUIN-KNV8, Ethyl 4-bromo-1-(4-fluorobenzoyl)pyrrolo[1,2-a]quinoline-3-carboxylate], the MIC was 1 µg/mL (≈ 2.27 µM). Consider `COC(=O)c1c(C(=O)OC)c2c(Br)cc3ccccc3n2c1C(=O)c1ccc(C#N)cc1` [QUIN-KNV9, Dimethyl 4-bromo-1-(4-cyanobenzoyl)pyrrolo[1,2-a]quinoline-2,3-dicarboxylate], for which the minimum inhibitory concentration (MIC) was determined as 8 µg/mL (≈ 16.3 µM). With `CCOC(=O)c1cc(C(=O)c2ccc(C#N)cc2)n2c1c(Br)cc1ccccc12` [QUIN-KNV10, Ethyl 4-bromo-1-(4-cyanobenzoyl)pyrrolo[1,2-a]quinoline-3-carboxylate], the MIC was found to be 8 µg/mL (≈ 17.9 µM).

Take `COC(=O)c1c(C(=O)OC)c2c(Br)cc3ccccc3n2c1C(=O)c1ccccc1` [QUIN-KNV11, Dimethyl 1-benzoyl-4-bromopyrrolo[1,2-a]quinoline-2,3-dicarboxylate]: the MIC was found to be 32 µg/mL (≈ 68.6 µM).
